Assay results reported in patent US20070166547A1, “Use of a layer consisting of hydrophobic linear, or two-dimensional polycyclic aromatics as a barrier layer or an encapsulation and electric components constructed with a layer of this type and comprising organic polymers” (priority 2003, published 2007).

Experiments:
[1] = Polarographic study of electrochemical reduction (electrochemical activity); assay type: physicochemical; conditions: for half-wave potential more positive on reverse stroke than on forward stroke: reverse stroke vs forward stroke; for number of electrons participating in the reduction: calculated with the Geirovsky-Ilkovich equation; for i, mkA (polarographic wave current) / −E1/2, V (half-wave potential vs SCE): 37° C., forward trace, average for the group; for i, mkA (polarographic wave current): 9·10^−4 M
Procedure: The study was carried out on a general-purpose polarograph PU-1 with a two-coordinate recorder of the “LKD” type using a three-electrode thermostatically controlled polarographic cell and mercury dripping electrode (MDE) with forced separation of the drop and a dropping period of 0.5 second. A platinum wire was used as an auxiliary electrode and a saturated calomel electrode (SCE) was used as a control electrode.
2.0% solutions of sodium chloride having pH 7.0, 7.2, 7.4, 7.6 were used as a background; the pH values of the background solution were corrected by a solution of sodium hydroxide. The polarographic cell was filled with 5.0 ml of the background solution and for 5 minutes was purged with nitrogen for removing the dissolved oxygen. Then 0.5 ml of solution of the studied substance was added to the background solution, and the polarogram was recorded as a polarographic wave. The concentration of the compounds in the polarographic cell was 9·10^−4 M.
The pH was measured on the pH-meter with an accuracy of ±0.05 pH units. The polarographic measurements were carried out at a temperature of 37° C. The recording of polarograms of the investigated materials was effected under conditions of DC current at a scanning rate of the potential 10.0 mV/s with a active scanning stroke from a potential 0 to −0.5 V and sweep retrace from a −0.5 V to 0. The electric-current sensitivity was 5.0 mkA. The scale by the coordinate of the potentials was 50.0 mV/cm. The values of potentials of the half-wave E1/2 of the investigated materials are given with respect to the SCE potential.
The polarogram parameters such as a limiting current ilim and E1/2 were determined by the graphic method. The number of electrons participating in the reaction was calculated on the basis of the analysis of the polarographic wave using the Geirovsky-Ilkovich equation.

[2] = Chronic toxicity, rectal suppositories: indexes of peripheral blood; conditions: male rats; for Basophiles / Juveniles: 1 month/2 months (one value given)
Procedure: The experiments were conducted on inbred rats. The experimental animals were selected in groups by a method of random sampling taking into account the body mass as a determining index; 24 males or 24 females for one preparation from compounds 2, 15, 23, 34, 37 investigated in one dose.
Two doses of preparations used in the experiments: 50 mg/kg and 500 mg/kg. Before the administration, the suppositories were softened by heating in a glass water bath at a temperature of 38-39° C., the soft mass was collected in tuberculin syringe in a volume of 1 ml, a needle with oliva was attached to the syringe, and the preparatory mass was introduced into the rectum of the animal for a depth of 1.5-2.0 cm. The animals of the control group were administered with sterile medical liquid paraffin in a volume corresponding to the volume of the investigated suppository. A complete course of administration of drugs to the animals was two months. A complex of laboratory diagnostic investigations was carried out one month after the beginning of the administration of the preparation to the animal—in a middle of the course (8 animals), two months after ending the course (8 animals) and three months after ending the recovery period of one month (8 animals). The mass of the body of the rats in the first month of administration of the preparation was determined weekly, and then once in two weeks. On the basis of the dynamics of an index of the mass of the animal body, the volume of preparation being administered was corrected taking into account the test dose.

[3] = suppositories 50 mg/kg, 1 month
[4] = suppositories 50 mg/kg, 2 months
[5] = suppositories 500 mg/kg, 1 month
[6] = suppositories 500 mg/kg, 2 months

For `O=c1[nH][nH]c(=O)c2nccnc12.[Na]` [Compound 26, sodium salt of pyrazine[2,3-d]-6H-pyridazine-5,8-dione], which “half-wave potential more positive on reverse stroke than on forward stroke” value (shortened to “half-wave potential more positive”) [1] is on record?
Its value is 27.0 mV.

For `O=c1[nH]n([C@@H]2O[C@H](CO)[C@@H](O)[C@H]2O)c(=O)c2ncnc(O)c12.[Na]` [Compound 33, sodium salt of 4-hydroxy-7-(β-D-ribofuranosile)pyrimido[4,5-d]-6H-pyridazine-5,8-dione], which “number of electrons participating in the reduction” value (“number … in the reduction” for short) [1] is on record?
The value was 3.5.

What about the “i, mkA (polarographic wave current)” value ([1]; pH 7.0) of the same compound?
The value was 0.30 ± 0.05 mkA.

And the “−E1/2, V (half-wave potential vs SCE)” value ([1]; pH 7.0)?
Its value is 0.08 ± 0.02 V.

And the “i, mkA (polarographic wave current)” value ([1]; pH 7.2)?
Its value is 0.26 ± 0.02 mkA.

What about the “i, mkA (polarographic wave current)” value ([1]; pH 7.4) of the same compound?
Its value is 0.30 ± 0.03 mkA.

What about the “−E1/2, V (half-wave potential vs SCE)” value ([1]; pH 7.4) of the same compound?
Its value is 0.085 ± 0.02 V.

And the “i, mkA (polarographic wave current)” value ([1]; pH 7.6)?
The value was 0.30 ± 0.02 mkA.

What about the “−E1/2, V (half-wave potential vs SCE)” value ([1]; pH 7.6) of the same compound?
Its value is 0.09 ± 0.02 V.

What about the “half-wave potential more positive” value [1] of the same compound?
Its value is 27.0 mV.

For `O=C([O-])c1ncnc2c(=O)n([C@@H]3O[C@H](CO)[C@@H](O)[C@H]3O)[nH]c(=O)c12.[Na+]` [Compound 34, sodium salt of 4-carboxy-7-(β-D-ribofuranosile)pyrimido[4,5-D]-6H-pyridazine-5,8-dione], which “Average volume of erythrocytes” value [2, 3] is on record?
Its value is 81.6 ± 1.9 Mkm^3.

And the “Coagulation, time” value [2, 3]?
The value was 148 ± 16 s.

What about the Eosinophiles [2, 3] of the same compound?
The Eosinophiles was 3.5 ± 1.0%.

And the Erythrocytes [2, 3]?
Its Erythrocytes is 5.6 ± 0.1 mln/mm^3.

And the Haematocrite [2, 3]?
Its Haematocrite is 46.9 ± 1.1%.

What about the Hemoglobin [2, 3] of the same compound?
The Hemoglobin was 10.6 ± 0.1 mmol/L.

What about the Leukocyte [2, 3] of the same compound?
Its Leukocyte is 15.9 ± 1.3 thousand/mm^3.

What about the REE [2, 3] of the same compound?
The REE was 1.8 ± 0.5 mm/h.

And the Reticulocytes [2, 3]?
The Reticulocytes was 2.7 ± 0.1%.

And the Stab neutrophil [2, 3]?
The Stab neutrophil was 1.0 ± 0.4%.

And the Thrombocytes [2, 3]?
The Thrombocytes was 670 ± 23.

And the Basophiles ([2]; suppositories 50 mg/kg)?
Its Basophiles is 0%.

And the Juveniles ([2]; suppositories 50 mg/kg)?
Its Juveniles is 0%.

What about the “Average volume of erythrocytes” value [2, 4] of the same compound?
Its value is 76.7 ± 1.9 Mkm^3.

And the “Coagulation, time” value [2, 4]?
Its value is 321 ± 10 s.

And the Eosinophiles [2, 4]?
The Eosinophiles was 4.1 ± 0.4%.

And the Erythrocytes [2, 4]?
Its Erythrocytes is 6.1 ± 0.2 mln/mm^3.

And the Haematocrite [2, 4]?
Its Haematocrite is 47.5 ± 1.2%.

And the Hemoglobin [2, 4]?
Its Hemoglobin is 11.1 ± 0.2 mmol/L.

What about the Leukocyte [2, 4] of the same compound?
Its Leukocyte is 17.8 ± 1.4 thousand/mm^3.

What about the REE [2, 4] of the same compound?
Its REE is 1.7 ± 0.3 mm/h.

And the Reticulocytes [2, 4]?
The Reticulocytes was 2.9 ± 0.2%.

What about the Stab neutrophil [2, 4] of the same compound?
The Stab neutrophil was 1.8 ± 0.5%.

What about the Thrombocytes [2, 4] of the same compound?
Its Thrombocytes is 610 ± 15.

What about the “Average volume of erythrocytes” value [2, 5] of the same compound?
The value was 84.1 ± 1.3 Mkm^3.

What about the Eosinophiles [2, 5] of the same compound?
Its Eosinophiles is 3.0 ± 0.9%.

What about the Erythrocytes [2, 5] of the same compound?
Its Erythrocytes is 5.6 ± 0.2 mln/mm^3.

What about the Haematocrite [2, 5] of the same compound?
The Haematocrite was 48.1 ± 1.5%.

And the Hemoglobin [2, 5]?
The Hemoglobin was 10.6 ± 0.3 mmol/L.

What about the Leukocyte [2, 5] of the same compound?
Its Leukocyte is 16.9 ± 1.0 thousand/mm^3.

What about the REE [2, 5] of the same compound?
The REE was 2.0 ± 0.4 mm/h.

What about the Reticulocytes [2, 5] of the same compound?
The Reticulocytes was 3.2 ± 0.2%.

And the Stab neutrophil [2, 5]?
The Stab neutrophil was 0.9 ± 0.2%.

What about the Thrombocytes [2, 5] of the same compound?
Its Thrombocytes is 682 ± 24.

And the Basophiles ([2]; suppositories 500 mg/kg)?
The Basophiles was 0%.

What about the Juveniles ([2]; suppositories 500 mg/kg) of the same compound?
Its Juveniles is 0%.

And the “Average volume of erythrocytes” value [2, 6]?
Its value is 83.8 ± 1.5 Mkm^3.

What about the “Coagulation, time” value [2, 6] of the same compound?
The value was 312 ± 9 s.

What about the Eosinophiles [2, 6] of the same compound?
The Eosinophiles was 3.9 ± 1.4%.

What about the Erythrocytes [2, 6] of the same compound?
The Erythrocytes was 6.6 ± 0.1 mln/mm^3.

What about the Haematocrite [2, 6] of the same compound?
Its Haematocrite is 53.1 ± 1.6%.

And the Hemoglobin [2, 6]?
Its Hemoglobin is 12.4 ± 0.4 mmol/L.

What about the Leukocyte [2, 6] of the same compound?
Its Leukocyte is 22.1 ± 1.1 thousand/mm^3.

And the REE [2, 6]?
The REE was 1.8 ± 0.2 mm/h.

What about the Reticulocytes [2, 6] of the same compound?
Its Reticulocytes is 3.5 ± 0.3%.

What about the Stab neutrophil [2, 6] of the same compound?
Its Stab neutrophil is 1.4 ± 0.3%.

And the Thrombocytes [2, 6]?
Its Thrombocytes is 631 ± 26.

Which “number … in the reduction” value [1] does the source give for `COP(=O)(OC)C(C)(C)CC(C)=O` [dimephosphon, dimethyl ester of 1,1-dimethyl-3-oxybuthyl of phosphonic acid, reference compound] here?
The value was 1.6.

And the “i, mkA (polarographic wave current)” value ([1]; pH 7.0)?
Its value is 0.10 ± 0.03 mkA.

What about the “−E1/2, V (half-wave potential vs SCE)” value ([1]; pH 7.0) of the same compound?
Its value is 0.175 ± 0.01 V.

What about the “i, mkA (polarographic wave current)” value ([1]; pH 7.2) of the same compound?
The value was 0.12 ± 0.03 mkA.

What about the “−E1/2, V (half-wave potential vs SCE)” value ([1]; pH 7.2) of the same compound?
Its value is 0.17 ± 0.02 V.

What about the “i, mkA (polarographic wave current)” value ([1]; pH 7.4) of the same compound?
The value was 0.11 ± 0.02 mkA.

What about the “−E1/2, V (half-wave potential vs SCE)” value ([1]; pH 7.4) of the same compound?
Its value is 0.18 ± 0.01 V.

What about the “i, mkA (polarographic wave current)” value ([1]; pH 7.6) of the same compound?
Its value is 0.11 ± 0.02 mkA.

And the “−E1/2, V (half-wave potential vs SCE)” value ([1]; pH 7.6)?
Its value is 0.18 ± 0.01 V.

What about the “half-wave potential more positive” value [1] of the same compound?
The value was 50.0 mV.

With “disodium salt of 3-Kap ? OKC ? -7-(β-D-ribofuranosile)pyrido[2,3-d]-6H-pyridazine-5,8-dione [Compound 5]” as the compound, how does the “number … in the reduction” value [1] read?
The value was 3.72.

And the “i, mkA (polarographic wave current)” value ([1]; pH 7.0)?
The value was 0.26 ± 0.04 mkA.

And the “−E1/2, V (half-wave potential vs SCE)” value ([1]; pH 7.0)?
Its value is 0.11 ± 0.02 V.

What about the “i, mkA (polarographic wave current)” value ([1]; pH 7.2) of the same compound?
Its value is 0.31 ± 0.02 mkA.

What about the “−E1/2, V (half-wave potential vs SCE)” value ([1]; pH 7.2) of the same compound?
Its value is 0.11 ± 0.03 V.

What about the “i, mkA (polarographic wave current)” value ([1]; pH 7.4) of the same compound?
Its value is 0.27 ± 0.03 mkA.

What about the “−E1/2, V (half-wave potential vs SCE)” value ([1]; pH 7.4) of the same compound?
Its value is 0.105 ± 0.01 V.

And the “i, mkA (polarographic wave current)” value ([1]; pH 7.6)?
The value was 0.30 ± 0.01 mkA.

And the “−E1/2, V (half-wave potential vs SCE)” value ([1]; pH 7.6)?
Its value is 0.105 ± 0.02 V.

What about the “half-wave potential more positive” value [1] of the same compound?
The value was 25.0 mV.

For “potassium salt of 3-bromine-pyrazine[2,3-Cl]-6H-pyridazine-5,8-dione [Compound 27]”, which “number … in the reduction” value [1] is on record?
Its value is 3.72.

And the “i, mkA (polarographic wave current)” value ([1]; pH 7.0)?
The value was 0.32 ± 0.03 mkA.

What about the “−E1/2, V (half-wave potential vs SCE)” value ([1]; pH 7.0) of the same compound?
The value was 0.16 ± 0.02 V.

What about the “i, mkA (polarographic wave current)” value ([1]; pH 7.2) of the same compound?
The value was 0.33 ± 0.04 mkA.

And the “−E1/2, V (half-wave potential vs SCE)” value ([1]; pH 7.2)?
The value was 0.19 ± 0.02 V.

What about the “i, mkA (polarographic wave current)” value ([1]; pH 7.4) of the same compound?
Its value is 0.34 ± 0.03 mkA.

What about the “−E1/2, V (half-wave potential vs SCE)” value ([1]; pH 7.4) of the same compound?
The value was 0.175 ± 0.01 V.

What about the “i, mkA (polarographic wave current)” value ([1]; pH 7.6) of the same compound?
The value was 0.34 ± 0.02 mkA.

What about the “−E1/2, V (half-wave potential vs SCE)” value ([1]; pH 7.6) of the same compound?
The value was 0.16 ± 0.015 V.

And the “half-wave potential more positive” value [1]?
Its value is 20.0 mV.

What does the source list for “sodium salt of 7-(β-O-ribofuranosile)pyrido[2,3-1]-6H-pyridazine-5,8-dione sodium salt [Compound 1]”?
number of electrons participating in the reduction [1]: 3.72; i, mkA (polarographic wave current) ([1]; pH 7.0): 0.26 ± 0.04 mkA; −E1/2, V (half-wave potential vs SCE) ([1]; pH 7.0): 0.11 ± 0.02 V; i, mkA (polarographic wave current) ([1]; pH 7.2): 0.31 ± 0.02 mkA; −E1/2, V (half-wave potential vs SCE) ([1]; pH 7.2): 0.11 ± 0.03 V; i, mkA (polarographic wave current) ([1]; pH 7.4): 0.27 ± 0.03 mkA; −E1/2, V (half-wave potential vs SCE) ([1]; pH 7.4): 0.105 ± 0.01 V; i, mkA (polarographic wave current) ([1]; pH 7.6): 0.30 ± 0.01 mkA; −E1/2, V (half-wave potential vs SCE) ([1]; pH 7.6): 0.105 ± 0.02 V; half-wave potential more positive on reverse stroke than on forward stroke [1]: 25.0 mV
